Reference: US4267189A, “Method of use and composition for 1,3-dihydro-3-(2-hydroxy-2-methylpropyl)-2H-isoindol-1-one” (American Home Products Corporation, priority 1979, dated 1981)

Columns and labels:
[1] = system: Indomethacin-Induced Ulcer Formation; assay: Indomethacin-induced ulcer formation; assay type: in vivo, rat (female albino Sprague-Dawley); details: for Ulcers Formed: mean ± S.E.; for ED50: Rattus norvegicus, indomethacin-induced ulcers, oral, doses in mg/kg
Protocol: The method utilized for the production and evaluation of indomethacin-induced ulcer formation was essentially as described by Y. H. Lee et al., Arch. Int. Pharmacodyn. […] Indomethacin (20 mg/kg, i.p.) was given, the animals sacrificed by cervical dislocation 5 hr later and the number of ulcers present in the glandular portion of the stomach determined. The test compound was administered orally (0.2 ml) 1 hr before the indomethacin. The vehicle employed for the administrations was water containing Tween 80 (1 drop per 7 ml). There were 12-32 animals per group.

[2] = system: Oxotremorine-Induced Effects; assay: Anticholinergic activity: antagonism of oxotremorine-induced effects (temperature, tremor, salivation, lacrimation); assay type: in vivo, mice; details: for Lacrimation (L) score / Salivation (S) score / Tremor (T) score: 2=strong, 1=weak, 0=none
Protocol: Anticholinergic activity was examined in vivo by determining the ability of the compound to antagonize oxotremorine-induced effects according to the method described by P. S. J. Spencer, Life Sci., 5, 1015 (1965). […] Rectal temperature was measured with a YSI telethermometer 402 physiological probe before administration of test compounds and oxotremorine and at 15 and 30 min after oxotremorine. At the same time the degree of tremor, salivation and lacrimation was scored as follows: 2=strong; 1=weak; 0=none.

[3] = system: Cold-Restraint-Induced Ulcer Formation; assay: Cold-restraint-induced ulcer formation; assay type: in vivo, rat (male albino Sprague-Dawley); details: for Ulcers Formed: mean ± S.E.; for ED50: Rattus norvegicus, cold-restraint ulcers, oral, doses in mg/kg
Description: Int. Pharmacodyn. […] Exp. Biol. Med., 113, 998 (1963) as modified by E. C. Senay and R. J. Levine Proc. Soc. Exp. Biol. Med., 124, 1221 (1967) when administered orally or parenterally (see Examples 3 and 4).
To assess the effects of the test compound on the development of cold-restraint-induced gastric lesions, the method of D. A. Brodie and L. S. Valitski Proc. Soc. Exp. Biol. Med., 113, 998 (1963) as modified by E. C. Senay and R. J. Levine Proc. Soc. Exp. Biol. Med., 124, 1221 (1967) was used. Food was withheld from male albino rats (165-175 g, Sprague-Dawley, Canadian Breeding Laboratories) for 24 hr but water was freely available. The test compound was administered orally (0.2 ml) to the animals (8-24 per group) 30 min before placing the animals into restrainers, the restrainer was made of plexiglass and restricted the movement of the rat to a minimum. The vehicle employed was as described above. The restrainers were placed in a cold environment (4°-7° C.) for 2 hr. The animals were sacrificed by cervical dislocation, the stomachs removed and the number of ulcers in the glandular portion of the stomach determined.

[4] = system: gastric acid secretion; details: Lee et al.; cited from earlier work
[5] = system: Gastric Acid Secretion; assay: Basal gastric acid secretion in the Shay (pylorus-ligated) rat; assay type: in vivo, rat (female Sprague Dawley); details: for Gastric Acid Output: mean ± S.E.; for ED50: Rattus norvegicus, gastric acid secretion; for basal gastric acid secretion (in words): rat
Protocol: Female Sprague Dawley rats (Canadian Breeding Laboratories; 160-180 g) were fasted for 48 hours before pyloric ligation. After the first 24 hours of fasting the animals were given access to 8% sucrose in 0.2% sodium chloride for 8 hours. Water was permitted ad libitum except during the 8 hour access to sucrose and after the drug treatment. The compounds were suspended in water with the aid of one drop of Tween 80 per 7 ml for oral or intraperitoneal administration. The pylorus was ligated under ether anesthesia and the sutured incision was covered with flexible collodion to prevent the animals from ingesting adhering blood. The stomachs were lavaged with 0.9% sodium chloride until the return solution was clear. Four hours after pyloric ligation, the animals were killed with diethyl ether and the gastric contents were collected in centrifuge tubes. The amount of acid in the centrifuged gastric juice was determined by titration against 0.1 N sodium hydroxide in a direct reading pH meter of pH 7.0.
Student's t test was used in the evaluation of the data. The ED50 's were obtained graphically by plotting the percent inhibition of gastric acid secretion versus the logarithm of the dose of the compound.

[6] = 2 mg/kg i.p., 15 min after oxotremorine
[7] = 2 mg/kg i.p., 30 min after oxotremorine
[8] = 5 mg/kg i.p., 15 min after oxotremorine
[9] = 5 mg/kg i.p., 30 min after oxotremorine
[10] = 25 mg/kg i.p., 15 min after oxotremorine
[11] = 25 mg/kg i.p., 30 min after oxotremorine
[12] = 100 mg/kg i.p., 15 min after oxotremorine
[13] = 100 mg/kg i.p., 30 min after oxotremorine

With `CN1[C@@H]2CC[C@H]1C[C@@H](OC(=O)C(CO)c1ccccc1)C2` (some centres unmarked) [Atropine, reference compound] as the molecule, how does the “Ulcers Formed (% Inhibition)” value ([1]; 1 mg/kg p.o.) read?
The value was 47 % Inhibition.

What about the “Ulcers Formed” value ([1]; 1 mg/kg p.o.) of the same molecule?
Its value is 5.2 ± 1.5.

And the “Ulcers Formed (% Inhibition)” value ([1]; 2 mg/kg p.o.)?
The value was 85 % Inhibition.

And the “Ulcers Formed” value ([1]; 2 mg/kg p.o.)?
The value was 1.5 ± 0.8.

What about the ED50 [1] of the same molecule?
The ED50 was 1.1 mg/kg.

And the “Temperature Before Oxotremorine” value ([2]; 2 mg/kg i.p.)?
The value was 37.6 ± 0.2 °C.

And the “Temperature after Oxotremorine” value ([2]; 2 mg/kg i.p., 15 min)?
Its value is 36.7 ± 0.4 °C.

And the “Lacrimation (L) score” value [2, 6]?
Its value is 0.

And the “Salivation (S) score” value [2, 6]?
Its value is 0.

And the “Tremor (T) score” value [2, 6]?
The value was 0.

And the “Temperature after Oxotremorine” value ([2]; 2 mg/kg i.p., 30 min)?
Its value is 35.7 ± 0.4 °C.

And the “Lacrimation (L) score” value [2, 7]?
Its value is 0.

What about the “Salivation (S) score” value [2, 7] of the same molecule?
The value was 0.

What about the “Tremor (T) score” value [2, 7] of the same molecule?
The value was 0.

And the “Temperature Before Oxotremorine” value ([2]; 5 mg/kg i.p.)?
The value was 37.2 ± 0.3 °C.

And the “Temperature after Oxotremorine” value ([2]; 5 mg/kg i.p., 15 min)?
Its value is 36.9 ± 0.2 °C.

And the “Lacrimation (L) score” value [2, 8]?
Its value is 0.

What about the “Salivation (S) score” value [2, 8] of the same molecule?
The value was 0.

What about the “Tremor (T) score” value [2, 8] of the same molecule?
The value was 0.16.

And the “Temperature after Oxotremorine” value ([2]; 5 mg/kg i.p., 30 min)?
The value was 36.9 ± 0.3 °C.

What about the “Lacrimation (L) score” value [2, 9] of the same molecule?
Its value is 0.16.

And the “Salivation (S) score” value [2, 9]?
Its value is 0.

What about the “Tremor (T) score” value [2, 9] of the same molecule?
The value was 0.

Which “Ulcers Formed (% Inhibition)” value ([3]; 1.25 mg/kg p.o.) does the source give for `CN(C)CCCN1c2ccccc2CCc2ccccc21` [Imipramine, reference compound] here?
Its value is 37 % Inhibition.

And the “Ulcers Formed” value ([3]; 1.25 mg/kg p.o.)?
Its value is 4.1 ± 1.5.

What about the “Ulcers Formed (% Inhibition)” value ([3]; 2.5 mg/kg p.o.) of the same molecule?
Its value is 68 % Inhibition.

What about the “Ulcers Formed” value ([3]; 2.5 mg/kg p.o.) of the same molecule?
The value was 2.1 ± 0.8.

What about the “Ulcers Formed (% Inhibition)” value ([3]; 5 mg/kg p.o.) of the same molecule?
Its value is 81 % Inhibition.

What about the “Ulcers Formed” value ([3]; 5 mg/kg p.o.) of the same molecule?
The value was 1.2 ± 0.4.

And the ED50 [3]?
Its ED50 is 1.7 mg/kg.

Which “effect on gastric acid secretion (in words)” value [4] does the source give for `COc1ccc2c(c1)c(CC(=O)O)c(C)n2C(=O)c1ccc(Cl)cc1` [Indomethacin] here?
Its value is “no effect on gastric acid secretion”.

And the “ulcer formation (in words)” value [4]?
The value was “induces ulcer formation”.

With `CC(C)(O)CC1NC(=O)c2ccccc21` (centres unmarked) [Isoindol-1-one, 1,3-dihydro-3-(2-hydroxy-2-methylpropyl)-2H-isoindol-1-one] as the molecule, how does the “Gastric Acid Output (% Inhibition)” value ([5]; 12 mg/kg i.p.) read?
Its value is 18 % Inhibition.

And the “Gastric Acid Output” value ([5]; 12 mg/kg i.p.)?
Its value is 448 ± 59 μEg/4 hr.

And the “Gastric Acid Output (% Inhibition)” value ([5]; 25 mg/kg i.p.)?
Its value is 49 % Inhibition.

What about the “Gastric Acid Output” value ([5]; 25 mg/kg i.p.) of the same molecule?
Its value is 275 ± 57 μEg/4 hr.

What about the “Gastric Acid Output (% Inhibition)” value ([5]; 25 mg/kg p.o.) of the same molecule?
Its value is 48 % Inhibition.

What about the “Gastric Acid Output” value ([5]; 25 mg/kg p.o.) of the same molecule?
Its value is 226 ± 48 μEq/4 hr.

What about the “Gastric Acid Output (% Inhibition)” value ([5]; 50 mg/kg i.p.) of the same molecule?
The value was 90 % Inhibition.

And the “Gastric Acid Output” value ([5]; 50 mg/kg i.p.)?
Its value is 56 ± 12 μEg/4 hr.

And the “Gastric Acid Output (% Inhibition)” value ([5]; 50 mg/kg p.o.)?
Its value is 65 % Inhibition.

What about the “Gastric Acid Output” value ([5]; 50 mg/kg p.o.) of the same molecule?
The value was 154 ± 33 μEq/4 hr.

What about the “Gastric Acid Output (% Inhibition)” value ([5]; 100 mg/kg p.o.) of the same molecule?
The value was 84 % Inhibition.

What about the “Gastric Acid Output” value ([5]; 100 mg/kg p.o.) of the same molecule?
The value was 71 ± 19 μEq/4 hr.

And the ED50 ([5]; ip, intraperitoneal administration)?
Its ED50 is 25 mg/kg.

And the ED50 ([5]; oral administration)?
The ED50 was 28 mg/kg.

And the “basal gastric acid secretion (in words)” value ([5]; listed as 1,3-Dihydro-3-(2-hydroxy-2-methylpropyl)-2H-isoindol-1-one)?
Its value is “inhibiting basal gastric acid secretion in the rat”.

What about the “basal gastric acid secretion (in words)” value ([5]; listed as 1,3-dihydro-3-(2-hydroxy-2-methylpropyl)-2H-isoindol-1-one) of the same molecule?
The value was “can inhibit gastric acid secretion”.

And the “Ulcers Formed (% Inhibition)” value ([1]; 25 mg/kg p.o.)?
The value was 50 % Inhibition.

What about the “Ulcers Formed” value ([1]; 25 mg/kg p.o.) of the same molecule?
Its value is 4.9 ± 1.2.

What about the “Ulcers Formed (% Inhibition)” value ([1]; 50 mg/kg p.o.) of the same molecule?
Its value is 75 % Inhibition.

What about the “Ulcers Formed” value ([1]; 50 mg/kg p.o.) of the same molecule?
Its value is 2.4 ± 0.7.

What about the “Ulcers Formed (% Inhibition)” value ([1]; 100 mg/kg p.o.) of the same molecule?
The value was 82 % Inhibition.

And the “Ulcers Formed” value ([1]; 100 mg/kg p.o.)?
The value was 1.8 ± 0.6.

And the ED50 [1]?
Its ED50 is 22 mg/kg.

What about the “indomethacin-induced ulcer formation (in words)” value ([1]; rat, orally or parenterally) of the same molecule?
Its value is “inhibiting indomethacin-induced ulcer formation in the rat”.

What about the “Ulcers Formed (% Inhibition)” value ([3]; 50 mg/kg p.o.) of the same molecule?
The value was 40 % Inhibition.

What about the “Ulcers Formed” value ([3]; 50 mg/kg p.o.) of the same molecule?
Its value is 3.9 ± 1.2.

And the “Ulcers Formed (% Inhibition)” value ([3]; 100 mg/kg p.o.)?
The value was 55 % Inhibition.

What about the “Ulcers Formed” value ([3]; 100 mg/kg p.o.) of the same molecule?
The value was 2.9 ± 0.5.

And the “Ulcers Formed (% Inhibition)” value ([3]; 200 mg/kg p.o.)?
The value was 69 % Inhibition.

And the “Ulcers Formed” value ([3]; 200 mg/kg p.o.)?
The value was 2.0 ± 0.8.

What about the ED50 [3] of the same molecule?
Its ED50 is 80 mg/kg.

What about the “cold-restraint-induced ulcer formation (in words)” value ([3]; rat, orally or parenterally) of the same molecule?
The value was “cold-resistant-induced ulcer formation in the rat”.

What about the “Temperature Before Oxotremorine” value ([2]; 25 mg/kg i.p.) of the same molecule?
Its value is 36.7 ± 0.2 °C.

What about the “Temperature after Oxotremorine” value ([2]; 25 mg/kg i.p., 15 min) of the same molecule?
The value was 31.4 ± 0.2 °C.

What about the “Lacrimation (L) score” value [2, 10] of the same molecule?
Its value is 2.0.

And the “Salivation (S) score” value [2, 10]?
The value was 2.0.

What about the “Tremor (T) score” value [2, 10] of the same molecule?
Its value is 2.0.

And the “Temperature after Oxotremorine” value ([2]; 25 mg/kg i.p., 30 min)?
Its value is 29.2 ± 0.2 °C.

And the “Lacrimation (L) score” value [2, 11]?
Its value is 2.0.

And the “Salivation (S) score” value [2, 11]?
Its value is 2.0.

And the “Tremor (T) score” value [2, 11]?
The value was 2.0.

What about the “Temperature Before Oxotremorine” value ([2]; 100 mg/kg i.p.) of the same molecule?
The value was 32.8 ± 0.2 °C.

And the “Temperature after Oxotremorine” value ([2]; 100 mg/kg i.p., 15 min)?
Its value is 31.2 ± 0.1 °C.

What about the “Lacrimation (L) score” value [2, 12] of the same molecule?
The value was 0.7.

What about the “Salivation (S) score” value [2, 12] of the same molecule?
The value was 2.0.

And the “Tremor (T) score” value [2, 12]?
Its value is 2.0.

And the “Temperature after Oxotremorine” value ([2]; 100 mg/kg i.p., 30 min)?
Its value is 30.5 ± 0.2 °C.

And the “Lacrimation (L) score” value [2, 13]?
Its value is 1.0.

And the “Salivation (S) score” value [2, 13]?
Its value is 2.0.

And the “Tremor (T) score” value [2, 13]?
Its value is 2.0.

What about the “anticholinergic activity (in words)” value ([2]; see Example 5) of the same molecule?
Its value is “does not exhibit appreciable anticholineric activity”.
